Measurements as given in patent US5047418A, “Method of stimulating histamine H3 -receptors” (Smith Kline & French Laboratories Limited, priority 1989, dated 1991).

Legend:
histamine H1 -receptor [1] = molecular target: T1, histamine H1 -receptor (Cavia porcellus, UniProt P31389); assay: Histamine H1-antagonist activity on guinea-pig ileum
Protocol: (§1) The activity of the compounds of the formula (1) at the histamine H1 - or H2 -receptor was assessed substantially as described by Parsons et al., Agents and Actions, 1976, 7(1), 31.
On the guinea-pig ileum the compound of the formula (1) wherein X is CH2 had no histamine H1 -antagonist activity up to 10^-5 M.

histamine H2 -receptor [2] = molecular target: T2, histamine H2 -receptor (Cavia porcellus, UniProt P47747); assay: Histamine H2-agonist activity on guinea-pig atrium
T2 construct: On the guinea-pig atrium; from tissue; host or cells: guinea-pig atrium (isolated tissue)
Protocol: as §1

histamine H1 -receptor [3] = molecular target: T1, histamine H1 -receptor; assay: Histamine H1-agonist activity on guinea-pig ileum
Protocol: as §1

histamine H3 -receptor = molecular target: T3, histamine H3 -receptor (Cavia porcellus, UniProt Q9JI35); assay: Inhibition of electrically evoked twitch responses of guinea-pig ileum (histamine H3-agonist activity); settings: read-out: EC50 (concentration of compound which caused 50% inhibition of the twitch response)
T3 construct: twitch responses of the guinea-pig ileum; from tissue; host or cells: guinea-pig ileum (isolated, electrically stimulated, organ bath)
Protocol: Inhibition of the electrically evoked twitch responses of the guinea-pig ileum by histamine H3 -receptor agonists was studied by addition of graded concentrations of the compound (in volumes of 25 μl or 79 μl) to the organ bath in a sequential manner. Each concentration of agonist was washed out of the bath when the response had reached equilibrium. A four minute period was allowed between each addition of the compound.

histamine H2 -receptor [4] = molecular target: T2, histamine H2 -receptor; assay: Histamine H2-antagonist activity on guinea-pig atrium; settings: read-out: pA2 (histamine H2 -antagonist activity) (converted)

T1 sequence (P31389 whole entry): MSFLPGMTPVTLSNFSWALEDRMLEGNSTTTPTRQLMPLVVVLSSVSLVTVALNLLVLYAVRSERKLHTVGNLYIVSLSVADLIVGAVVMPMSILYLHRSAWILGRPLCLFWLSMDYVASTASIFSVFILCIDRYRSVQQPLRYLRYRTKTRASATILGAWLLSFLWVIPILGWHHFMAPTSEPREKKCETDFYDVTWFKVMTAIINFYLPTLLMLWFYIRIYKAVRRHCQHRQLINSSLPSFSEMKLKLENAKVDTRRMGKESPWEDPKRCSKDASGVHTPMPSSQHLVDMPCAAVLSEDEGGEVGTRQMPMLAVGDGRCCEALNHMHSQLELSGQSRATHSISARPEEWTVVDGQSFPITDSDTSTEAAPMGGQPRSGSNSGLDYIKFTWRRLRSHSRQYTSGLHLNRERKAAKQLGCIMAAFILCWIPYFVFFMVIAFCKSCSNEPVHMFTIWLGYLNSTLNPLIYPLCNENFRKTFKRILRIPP
T2 sequence (P47747 whole entry): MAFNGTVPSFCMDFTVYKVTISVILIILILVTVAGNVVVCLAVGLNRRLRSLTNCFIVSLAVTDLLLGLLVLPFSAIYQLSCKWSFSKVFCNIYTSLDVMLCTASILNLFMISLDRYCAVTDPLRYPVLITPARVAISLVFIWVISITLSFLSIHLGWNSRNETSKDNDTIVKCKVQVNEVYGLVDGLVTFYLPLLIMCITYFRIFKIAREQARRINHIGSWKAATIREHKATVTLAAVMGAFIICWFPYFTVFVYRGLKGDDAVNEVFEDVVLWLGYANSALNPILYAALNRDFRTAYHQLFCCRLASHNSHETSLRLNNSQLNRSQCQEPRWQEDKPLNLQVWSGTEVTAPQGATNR
T3 sequence (Q9JI35 whole entry): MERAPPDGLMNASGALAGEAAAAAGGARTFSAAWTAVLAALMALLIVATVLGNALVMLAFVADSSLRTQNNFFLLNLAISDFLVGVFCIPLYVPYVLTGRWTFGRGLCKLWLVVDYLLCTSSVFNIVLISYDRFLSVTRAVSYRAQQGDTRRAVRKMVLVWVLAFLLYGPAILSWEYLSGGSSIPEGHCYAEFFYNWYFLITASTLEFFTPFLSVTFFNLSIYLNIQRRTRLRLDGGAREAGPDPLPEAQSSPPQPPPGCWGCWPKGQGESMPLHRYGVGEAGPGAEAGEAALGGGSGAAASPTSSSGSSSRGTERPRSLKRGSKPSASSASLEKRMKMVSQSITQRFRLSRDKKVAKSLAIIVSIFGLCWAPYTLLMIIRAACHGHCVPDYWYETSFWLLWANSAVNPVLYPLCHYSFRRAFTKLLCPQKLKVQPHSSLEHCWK

concentration at which histamine H1 -antagonist activity is demonstrated (histamine H1 -receptor [1]) | concentration at which histamine H2 -agonist activity is demonstrated (histamine H2 -receptor [2]) | Structure (SMILES) | concentration at which histamine H1 -agonist activity is demonstrated (histamine H1 -receptor [3]) | EC50 (histamine H3 -receptor) [µM] | Kb (histamine H2 -receptor [4]) [µM]
> 10^-5 M | > 10^-5 M | N=C(N)CCCc1c[nH]cn1 [X = CH2, 4-(4(5)-imidazolyl)butyramidine] | > 10^-5 M | 0.0011 | ~251
 |  | N=C(N)SCCc1c[nH]cn1 [X = S, S-[2-(4(5)-imidazolyl)ethyl]isothiourea] | 10^-4 to 10^-3 M | 0.0046 | 79.4
